Test results as given in patent US9902725B2, “Heterocyclic derivatives as RORgamma modulators” (GENFIT, priority 2014, dated 2018).

Key:
Assay type in all cases: in vitro ADME
CYP3A4 = CYP3A4 (Homo sapiens, UniProt P08684); assay: CYP inhibition CYP3A4 (CEREP); details: human, recombinant CYP3A4, probe 7-benzyloxy-4-trifluoromethylcoumarin, single concentration (typically 10 μM), read-out: CYP 3A4 (% inhibition of Control)
Protocol: (§1) All the assays were conducted at CEREP (CEREP, France and USA). Metabolic compound stability was tested in human (CEREP, Ref 607) and mouse (CEREP, Ref: 806) microsomes. Inhibition of human drug-metabolizing cytochromes P450 was tested on the five most commonly responsible enzymes of metabolism of xenobiotics, CYP1A2 (CEREP, Ref 389), CYP2C9 (CEREP, Ref 412), CYP2C19 (CEREP, Ref 390), CYP2D6 (CEREP, Ref 1338) and CYP3A4 (CEREP, Ref 391).
(§2) Briefly, CEREP's CYP inhibition assay uses traditional probe substrates, which are specific to individual CYP isoforms. 3-cyano-7-ethoxycoumarin is mainly catalyzed by CYP1A2 and CYP2C19, 3-[2-(N,N-diethyl-N-methylammonium)ethyl]-7-methoxy-4-methylcoumarin for CYP2C9 and CYP2D6 and finally, 7-benzyloxy-4-trifluoromethylcoumarin is pathway catalyzed predominantly by CYP3A4. The inhibition assays were performed with human recombinant CYP isoforms preparations. HPLC MS/MS methods are used to detect metabolites in these assays. Compounds were tested at single concentrations (typically 10 μM) and data were expressed as percent of control inhibition.

[1] = Microsomal stability, mouse microsomes (CEREP); details: 0.1 μM, 0.1 mg/mL microsomal protein
Protocol: as §1
Briefly, the standard conditions for CEREP's stability assays include incubation of test compound at 0.1 μM with human or mouse microsomes for 60 minutes in duplicate. The protein concentration of microsomes is 0.1 mg/mL. The parent compound is detected by HPLC-MS/MS analysis. The quantity of the parent compound that remains intact upon 60 minutes of microsome exposure (% remaining) is calculated by comparing the peak area of the parent compound at 60 minutes of exposure to the time zero.

CYP1A2 = target: T1, CYP1A2 (Homo sapiens, UniProt P05177); assay: CYP inhibition CYP1A2 (CEREP); details: human, recombinant CYP1A2, probe 3-cyano-7-ethoxycoumarin, single concentration (typically 10 μM), read-out: CYP 1A2 (% inhibition of Control)
T1 sequence (P05177 1-516): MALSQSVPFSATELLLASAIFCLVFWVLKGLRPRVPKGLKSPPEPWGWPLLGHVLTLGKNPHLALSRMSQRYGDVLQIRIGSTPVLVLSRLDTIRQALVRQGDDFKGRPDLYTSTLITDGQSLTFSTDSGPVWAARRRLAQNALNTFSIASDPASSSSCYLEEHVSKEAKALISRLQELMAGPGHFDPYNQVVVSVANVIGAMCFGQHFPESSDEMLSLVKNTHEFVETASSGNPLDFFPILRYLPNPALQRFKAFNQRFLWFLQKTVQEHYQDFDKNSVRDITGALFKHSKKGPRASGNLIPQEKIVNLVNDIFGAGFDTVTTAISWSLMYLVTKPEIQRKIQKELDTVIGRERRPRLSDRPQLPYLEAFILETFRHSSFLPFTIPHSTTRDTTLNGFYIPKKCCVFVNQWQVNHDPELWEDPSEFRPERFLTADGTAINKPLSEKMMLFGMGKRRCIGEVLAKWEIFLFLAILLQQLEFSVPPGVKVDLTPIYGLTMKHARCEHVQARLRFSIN
Protocol: as §1, §2

CYP2C19 = CYP2C19 (Homo sapiens, UniProt P33261); assay: CYP inhibition CYP2C19 (CEREP); details: human, recombinant CYP2C19, probe 3-cyano-7-ethoxycoumarin, single concentration (typically 10 μM), read-out: CYP 2C19 (% inhibition of Control)
CYP2C19, sequence (P33261 whole entry): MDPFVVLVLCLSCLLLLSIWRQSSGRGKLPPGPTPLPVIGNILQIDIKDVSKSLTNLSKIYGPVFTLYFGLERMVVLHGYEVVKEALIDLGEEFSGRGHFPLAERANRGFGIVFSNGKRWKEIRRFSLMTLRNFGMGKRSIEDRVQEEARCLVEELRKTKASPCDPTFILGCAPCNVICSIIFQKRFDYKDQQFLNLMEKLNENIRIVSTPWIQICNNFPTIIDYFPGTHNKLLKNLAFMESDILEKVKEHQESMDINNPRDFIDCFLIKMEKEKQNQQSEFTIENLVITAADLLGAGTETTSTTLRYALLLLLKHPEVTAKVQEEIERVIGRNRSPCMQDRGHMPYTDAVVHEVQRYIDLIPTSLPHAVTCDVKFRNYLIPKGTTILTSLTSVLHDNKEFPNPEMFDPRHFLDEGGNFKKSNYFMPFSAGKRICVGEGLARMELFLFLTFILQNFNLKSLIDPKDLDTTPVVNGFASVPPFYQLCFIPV
Protocol: as §1, §2

CYP2D6 = CYP2D6 (Homo sapiens, UniProt P10635); assay: CYP inhibition CYP2D6 (CEREP); details: human, recombinant CYP2D6, human recombinant CYP, single concentration (typically 10 μM); read-out: CYP 2D6 (% inhibition of Control)
CYP2D6, sequence (P10635 whole entry): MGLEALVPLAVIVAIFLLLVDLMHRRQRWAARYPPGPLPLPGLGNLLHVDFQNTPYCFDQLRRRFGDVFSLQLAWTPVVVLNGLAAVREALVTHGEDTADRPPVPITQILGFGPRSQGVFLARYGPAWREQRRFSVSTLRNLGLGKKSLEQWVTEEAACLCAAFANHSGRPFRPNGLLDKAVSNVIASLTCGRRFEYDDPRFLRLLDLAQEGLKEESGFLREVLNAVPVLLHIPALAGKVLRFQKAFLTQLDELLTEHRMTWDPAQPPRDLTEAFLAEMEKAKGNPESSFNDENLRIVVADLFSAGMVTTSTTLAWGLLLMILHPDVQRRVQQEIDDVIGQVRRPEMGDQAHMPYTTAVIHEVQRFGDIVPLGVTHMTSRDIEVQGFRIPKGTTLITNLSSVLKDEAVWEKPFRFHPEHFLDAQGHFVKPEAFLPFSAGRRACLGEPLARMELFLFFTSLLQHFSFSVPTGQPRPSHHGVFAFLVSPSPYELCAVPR
Protocol: as §1, §2

CYP2C9 = CYP2C9 (Homo sapiens, UniProt P11712); assay: CYP inhibition CYP2C9 (CEREP); details: human, recombinant CYP2C9, human recombinant CYP, single concentration (typically 10 μM); read-out: CYP 2C9 (% inhibition of Control)
CYP2C9, sequence (P11712 whole entry): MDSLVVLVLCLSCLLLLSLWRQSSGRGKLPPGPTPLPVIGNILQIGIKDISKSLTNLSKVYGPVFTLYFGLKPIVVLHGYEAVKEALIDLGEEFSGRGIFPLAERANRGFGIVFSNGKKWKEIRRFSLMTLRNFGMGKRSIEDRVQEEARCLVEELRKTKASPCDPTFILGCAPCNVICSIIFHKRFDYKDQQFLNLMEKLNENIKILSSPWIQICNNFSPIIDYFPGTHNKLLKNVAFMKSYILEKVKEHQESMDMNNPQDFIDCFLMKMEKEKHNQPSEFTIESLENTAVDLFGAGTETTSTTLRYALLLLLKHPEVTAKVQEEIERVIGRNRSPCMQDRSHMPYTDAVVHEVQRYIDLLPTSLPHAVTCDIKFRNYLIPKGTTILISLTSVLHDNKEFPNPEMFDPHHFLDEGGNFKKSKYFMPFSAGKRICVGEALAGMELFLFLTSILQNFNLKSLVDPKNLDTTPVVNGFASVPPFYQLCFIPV
Protocol: as §1, §2

CYP3A4, sequence (P08684 whole entry): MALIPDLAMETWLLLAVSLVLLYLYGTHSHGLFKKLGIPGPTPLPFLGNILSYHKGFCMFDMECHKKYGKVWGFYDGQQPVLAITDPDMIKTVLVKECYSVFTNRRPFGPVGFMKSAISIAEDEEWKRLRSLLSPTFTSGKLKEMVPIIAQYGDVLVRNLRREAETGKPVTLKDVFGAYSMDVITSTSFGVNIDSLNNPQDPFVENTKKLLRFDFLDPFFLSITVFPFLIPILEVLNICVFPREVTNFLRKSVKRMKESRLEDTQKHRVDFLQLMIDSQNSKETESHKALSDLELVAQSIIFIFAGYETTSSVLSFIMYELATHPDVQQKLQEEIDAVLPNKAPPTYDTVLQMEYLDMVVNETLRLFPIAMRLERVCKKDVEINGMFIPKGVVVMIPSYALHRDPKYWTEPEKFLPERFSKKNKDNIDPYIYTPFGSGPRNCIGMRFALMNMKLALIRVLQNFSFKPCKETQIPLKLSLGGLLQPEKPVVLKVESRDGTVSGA

Row | SMILES | inhibition at 10 µM (CYP3A4) [%] | Mouse microsomes (% Cpd. remaining at 60 min) [1] [%] | inhibition at 10 µM (CYP1A2) [%] | inhibition at 10 µM (CYP2C19) [%] | inhibition at 10 µM (CYP2D6) [%] | inhibition at 10 µM (CYP2C9) [%]
1 | O=C(O)CCc1c[nH]c2ccc(CC(=O)NC(c3ccccc3)c3ccccc3N3CCCCC3)cc12 (stereo not drawn) [Cpd. 1, 3-{5-[({phenyl[2-(piperidin-1-yl)phenyl]methyl}carbamoyl)methyl]-1H-indol-3-yl}propanoic acid] | 19 | 35 | 1 | 13 | 49 | 12
2 | O=C(O)CCc1c[nH]c2ccc(CC(=O)NC(c3cccc(F)c3)c3ccccc3N3CCCCC3)cc12 (stereo not drawn) [Cpd. 3, 3-[5-({[(3-fluorophenyl)[2-(piperidin-1-yl)phenyl]methyl]carbamoyl}methyl)-1H-indol-3-yl]propanoic acid] | 60.9 | 22 | 2.9 | 58.8 | -2 | 52.7
3 | Cc1ccc(C(NC(=O)Cc2ccc3[nH]cc(CCC(=O)O)c3c2)c2ccccc2)c(N2CCCC2)c1 (stereo not drawn) [Cpd. 5, 3-{5-[({[4-methyl-2-(pyrrolidin-1-yl)phenyl](phenyl)methyl}carbamoyl)methyl]-1H-indol-3-yl}propanoic acid] | 25.8 | 50 | 4.4 | 25 | 13.5 | 35.9
4 | CC(C)CC(NC(=O)Cc1ccc2[nH]cc(CCC(=O)O)c2c1)c1ccccc1N1CCCCC1 (stereo not drawn) [Cpd. 29, 3-{5-[({3-methyl-1-[2-(piperidin-1-yl)phenyl]butyl}carbamoyl)methyl]-1H-indol-3-yl}propanoic acid] | 47.2 | 20 | -8.2 | 14.1 | 18.2 | 14.9
5 | O=C(O)CCc1c[nH]c2ccc(CC(=O)NC(c3ccccc3)c3ccc(C(F)(F)F)cc3N3CCCC3)cc12 (stereo not drawn) [Cpd. 48, 3-{5-[({phenyl[2-(pyrrolidin-1-yl)-4-(trifluoromethyl)phenyl]methyl}carbamoyl)methyl]-1H-indol-3-yl}propanoic acid] | 33.7 | 53 | 10.7 | 35 | 78.9 | 24.6
6 | O=C(O)CCc1c[nH]c2ccc(CC(=O)NC(c3ccccc3)c3ccc(Br)cc3N3CCCC3)cc12 (stereo not drawn) [Cpd. 50, 3-{5-[({[4-bromo-2-(pyrrolidin-1-yl)phenyl](phenyl)methyl}carbamoyl)methyl]-1H-indol-3-yl}propanoic acid] | 36.8 | 38 | 0.9 | 32.3 | 26.5 | 15.8
7 | Cc1ccc(C(NC(=O)Cc2ccc3[nH]cc(CCC(=O)O)c3c2)c2ccccc2)c(N2CCCCC2)c1 (stereo not drawn) [Cpd. 77, 3-{5-[({[4-methyl-2-(piperidin-1-yl)phenyl](phenyl)methyl}carbamoyl)methyl]-1H-indol-3-yl}propanoic acid] | 31.3 | 31 | -0.9 | 28.1 | 6.2 | 23.2
8 | COc1ccc(C(NC(=O)Cc2ccc3[nH]cc(CCC(=O)O)c3c2)c2ccccc2)c(N2CCCCC2)c1 (stereo not drawn) [Cpd. 111, 3-{5-[({[4-methoxy-2-(piperidin-1-yl)phenyl](phenyl)methyl}carbamoyl)methyl]-1H-indol-3-yl}propanoic acid] | 40.1 | 37 | -12.4 | 29.4 | 7.5 | 28.2
9 | Cc1ccc(C(NC(=O)Cc2ccc3[nH]cc(CCC(=O)O)c3c2)c2ccccc2)c(N(C)C)c1 (stereo not drawn) [Cpd. 192, 3-{5-[({[2-(dimethylamino)-4-methylphenyl](phenyl)methyl}carbamoyl)methyl]-1H-indol-3-yl}propanoic acid] | 30.9 | 66 | -1.9 | 31.2 | 4.3 | 28.6
10 | O=C(O)CCCc1c[nH]c2ccc(CC(=O)NC(c3ccccc3)c3ccccc3N3CCCCC3)cc12 (stereo not drawn) [Cpd. 212, 4-{5-[({phenyl[2-(piperidin-1-yl)phenyl]methyl}carbamoyl)methyl]-1H-indol-3-yl}butanoic acid] | 31 | 11 | -5.4 | 32.2 | -6.3 | 29.5
